Experimental data: patent US11911353B2, “Fatty acid synthase inhibitor and application thereof” (Jiangnan University, priority 2019, dated 2024)

Legend:
[1] = test system: colon cancer cells HCT116; test: Fatty acid content and composition by GC/MS, HCT116 (FIG. 5); assay type: cell-based; conditions: HCT116, 20 μM, 24 hours
Text: […]

nematodes = test: Accumulation of lipid droplets in nematodes, oil red staining (FIG. 7); assay type: in vivo; conditions: 10 μM, 9 days
Experimental: Nematodes are taken and resuspended in an M9 buffer, 3 ml of nematode suspension is added into each test tube, the compound shown as the formula I is added into an experimental group to make the final concentration reach 10 μM, a group with no addition of the compound shown as the formula I is used as a control, the suspension is subjected to shaking culture on a shaker at 200 rpm/min, oil red staining is carried out after 9 days, the suspension is placed on a glass slide for observing the lipid droplet condition under a microscope.

[2] = test system: colon cancer cells HCT116; test: MTT tumor proliferation IC50, HCT116; assay type: cell-based; conditions: Homo sapiens, HCT-116, 72 hours of incubation
Text: IC50 (half maximal inhibitory concentration) refers to the half inhibitory concentration of a measured antagonist. It can indicate that a certain concentration of a certain drug or substance (inhibitor) induces tumor cell apoptosis by 50%, and this concentration is referred to as 50% inhibitory concentration, namely, the corresponding concentration when the ratio of apoptotic cells to the total number of cells is equal to 50%. The IC50 value can be used to measure the ability of a drug to induce apoptosis, that is, the higher the inducing ability, the lower the value, which also can indicate the tolerance degree of a certain cell to a drug on the contrary. • (1) Cells in the logarithmic phase are collected, the concentration of a cell suspension is adjusted, it is appropriate to place 100 μl cells in each well of a 96-well plate, the cells are inoculated into the plate to adjust the density of to-be-detected cells to be 1000-10000 cells/well, and edge wells are filled with sterile PBS. • (2) The cells are incubated under 5% CO2 at 37° C., an original culture medium is discarded after complete cell adherence, 200 μl of 1 wt % FBS culture medium containing 0.01 μM, 0.1 μM, 1 μM, 5 μM and 10 μM compound I-1 or cerulenin is added into each well, and there are 6 wells run in duplicate. An equal volume of DMSO is added as a negative control. • (3) After 72 hours of incubation, the cells are photographed for state recording, an original culture medium is discarded, and 100 μl of serum-free culture medium containing 0.5 mg/ml MTT (3-(4,5-dimethylthiazole-2)-2,5-diphenyltetrazolium bromide, trade name thiazolyl blue) is added into each well. • (4) After 2-4 hours of incubation, an original culture medium is discarded, and 150 μl of dimethyl sulfoxide (DMSO) is added into each well and shaken at 300 rpm for 10 minutes to fully dissolve purple crystals. • (5) The absorbance of each well at OD570 nm is measured by an enzyme-linked immunodetection instrument, the absorbance at OD630 nm is used as a reference, dual-wavelength measurement is carried out, and survival rate results are calculated according to the following formula: Cell survival rate=(OD570−OD630)/(OD570 negative control−OD630 negative control);
wherein, OD570: OD570 value of each treatment group; OD630: OD630 value of each treatment group; OD570 control: OD570 value of the negative control group; OD630 control: OD630 value of the negative control group. • (6) The survival rate results are processed with graphpad 6.0 software according to the concentration gradient, the analysis mode is log (inhibitor) vs. Nonlinear regression (curve fit), and the calculated IC50 value is expressed as x+/−SD.
The FASN enzyme activity measurement method shown in Experimental Example 18 is used to detect the effects of different substances on FASN enzyme activity. The method shown in Experimental Example 19 is used to detect the effects of different substances on the proliferation of tumor cells, cerulenin is used as a control, and the inhibition rates (%) of different substances on FASN enzyme activity and inhibition rates (IC50 nM) on tumor proliferation are calculated.

[3] = test system: prostate cancer cells PC-3; test: Growth cycle of PC-3 cells, PI staining flow cytometry (FIG. 3); assay type: cell-based; conditions: 10 μM treatment group, 24 hours; control group 10.34%
Text: […]

IC50 [2]: 13 nM
Compound: O=C(CCCC(=O)Nc1ccc(Br)cc1)N/N=C/c1cc(Br)ccc1O [Compound I-1]
fatty acid content of 16:0 [1]: lower than that of the control group
total fatty acid content [1]: significantly lower than that of the control group
accumulation of lipid droplets in nematodes (nematodes): significantly lower than that of the control group
proportion of PC3 cells in S phase [3]: 19.10%
